The text below walks through data of ChEMBL document CHEMBL1156251, “Structure--activity relationships of polymyxin antibiotics” (J Med Chem, 2010).

What is called MIC is the least concentration at which growth counts as inhibited. The pIC50 is the IC50 on a negative log10 scale, so that one unit is a factor of ten. One may read the IC50 as the concentration that gives 50% inhibition. A high value points to a need for much substance.

The test system of data set [1] is Escherichia coli. As to the kind of experiment: Antimicrobial activity against Escherichia coli. The class given is functional.
For the next data set, the system named is Pseudomonas aeruginosa. Nature of the data set: Antimicrobial activity against Pseudomonas aeruginosa. In kind it is functional, organism-based.
Another data set has as its system Klebsiella pneumoniae. As to the kind of experiment: Antimicrobial activity against Klebsiella pneumoniae. In kind it is functional.
Data set [2] in a line: (§1) Toxicity in iv dosed CF1 mouse. In kind it is organism-based. Conditions: CF1, mouse, in vivo.
For data set [3], the system named is Mus musculus. Nature of the data set: Protective activity in sc dosed CF1 mouse. The following applies: in vivo.
Data set [4] is described as follows: (§2) Toxicity in mouse. The class given is organism-based. Conditions: in vivo.
For a further data set, the target named is Lipopolysaccharide (LPS). Nature of the data set: Displacement of dansyl-PMB from LPS by isothermal titration calorimetry. (Isothermal titration calorimetry measures the heat released or taken up as one component is titrated into another.)
Data set [5] relates to Escherichia coli. As to the kind of experiment: Antimicrobial activity against Escherichia coli assessed as relative sensitizing activity. The class given is functional.
Data set [6] has as its system Escherichia coli. As to the kind of experiment: Antimicrobial activity against PMB-susceptible Escherichia coli SC9251. The class given is functional.
In data set [7] the test system is Escherichia coli. As to the kind of experiment: Antimicrobial activity against PMB-resistant Escherichia coli SC9253. In kind it is functional.
Data set [8] is filed under the species Mus musculus. The data set is described as §2. In kind it is organism-based. Conditions: in vivo.
The test system of data set [9] is Mus musculus. Described as §1. Conditions: mouse, in vivo. In kind it is organism-based.
Data set [10] relates to Mus musculus. As to the kind of experiment: Acute toxicity in iv dosed mouse. The class given is organism-based. Conditions: in vivo.

pIC50: −log10 of the molar value. In brackets after ≈: the same amount, converted by molar mass. Where a SMILES comes first, the peptide text is derived from it. Bridges are numbered along the chain shown (N, C = ends). [ ]: non-standard residue; d: D form. The star is where a group is joined. Octanoyl = CCCCCCCC(=O)*; Dab = NCC[C@H](N)C(=O)O

`CCCCCCCC(=O)N[C@@H](CCN)C(=O)N[C@H](C(=O)N[C@@H](CCN)C(=O)N[C@H]1CCNC(=O)[C@H]([C@@H](C)O)NC(=O)[C@H](CCNC(=O)[C@@H](N)CCCNC(=N)N)NC(=O)[C@H](CCN)NC(=O)[C@H](CC(C)C)NC(=O)[C@@H](Cc2ccccc2)NC(=O)[C@H](CCN)NC1=O)[C@@H](C)O` (Octanoyl-[Dab]T[Dab][Dab][Dab][dF]L[Dab][Dab](Arg)T; lactam 4-C): the minimum inhibitory concentration (MIC) in the data set on Escherichia coli [1] came to 0.16 µg/mL (≈ 0.119 µM); in the data set on Pseudomonas aeruginosa, 0.03 µg/mL (≈ 0.0223 µM); against Klebsiella pneumoniae it was 2 µg/mL (≈ 1.49 µM). For the same molecule, the LD50 in [2] worked out at 15 mg/kg. Moreover, the PD50 with Mus musculus [3] was 0.25 mg/kg.
On to `CC(C)C[C@@H]1NC(=O)[C@@H](Cc2ccccc2)NC(=O)[C@H](CCN)NC(=O)[C@@H](NC(=O)[C@H](CCN)NC(=O)[C@@H](N)[C@@H](C)O)CCNC(=O)[C@H]([C@@H](C)O)NC(=O)[C@H](CCN)NC(=O)[C@H](CCN)NC1=O` (stereo in doubt; 193) [POLYMYXIN B NONAPEPTIDE], for which, in [4], the LD50 worked out at 43 mg/kg. Also, the pIC50 on Lipopolysaccharide (LPS) (read-out: IC50) was 5.60. Moreover, the Activity in the data set on Escherichia coli [5] was 100%.
In the case of `CC(C)CCCCCC(O)CC(=O)N[C@@H](CCN)C(=O)N[C@H]1CCNC(=O)[C@H](CC(C)C)NC(=O)[C@H](CCN)NC(=O)[C@H](CCN)NC(=O)[C@H](CC(C)C)NC(=O)[C@@H](Cc2ccccc2)NC(=O)[C@H](CCN)NC1=O` (some centres undefined) [OCTAPEPTIN A1], the MIC came to 1.7 µg/mL (≈ 1.61 µM) against Escherichia coli [6] and 0.3 µg/mL (≈ 0.283 µM) in the data set with Escherichia coli [7].
As for POLYMYXIN B, the LD50 is 9 mg/kg in the data set filed under Mus musculus [8], 9 mg/kg with Mus musculus [9] and 4.8 µM/g in the data set with Mus musculus [10]. On Lipopolysaccharide (LPS), this molecule had an IC50 of 4000 nM.
